Reference: the NIST ThermoML archive (doi:10.1021/je1012235)
± gives the expanded uncertainty stated by the source.

Settings: 101.33 kPa, Liquid; for mass density: Vibrating tube method

Molecule CCCCCCCCCCCCCCCCCCCC(=O)OC [methyl eicosanoate] has a viscosity (323.15 K) of 4.832 ± 0.061 mPa·s, a mass density (323.15 K) of 842.3 ± 1 kg/m3 and a viscosity (328.15 K) of 4.323 ± 0.055 mPa·s. It also gave a mass density (328.15 K) of 838.7 ± 1 kg/m3, a viscosity (333.15 K) of 3.889 ± 0.05 mPa·s and a mass density (333.15 K) of 834.9 ± 1 kg/m3. For the same molecule, the viscosity (338.15 K) was 3.517 ± 0.045 mPa·s, the mass density (338.15 K) was 831.4 ± 1 kg/m3 and the viscosity (343.15 K) was 3.196 ± 0.042 mPa·s. For the same molecule, the mass density (343.15 K) was 827.8 ± 1 kg/m3, the viscosity (348.15 K) was 2.918 ± 0.038 mPa·s and the mass density (348.15 K) was 824.3 ± 1 kg/m3. For the same molecule, the viscosity (353.15 K) was 2.674 ± 0.035 mPa·s, the mass density (353.15 K) was 820.8 ± 1 kg/m3 and the viscosity (358.15 K) was 2.461 ± 0.033 mPa·s. The mass density (358.15 K) was 817.3 ± 1 kg/m3, the viscosity (363.15 K) was 2.273 ± 0.031 mPa·s and the mass density (363.15 K) was 813.8 ± 1 kg/m3. For the same molecule, the viscosity (368.15 K) was 2.107 ± 0.029 mPa·s, the mass density (368.15 K) was 810.4 ± 1 kg/m3 and the viscosity (373.15 K) was 1.959 ± 0.027 mPa·s. The mass density (373.15 K) was 807 ± 1 kg/m3.
CC/C=C\C/C=C\C/C=C\CCCCCCCC(=O)OCC [ethyl 9,12,15-octadecatrienoate] gave a viscosity (278.15 K) of 6.282 ± 0.082 mPa·s, a mass density (278.15 K) of 904.6 ± 1 kg/m3 and a viscosity (283.15 K) of 5.538 ± 0.073 mPa·s. For the same molecule, the mass density (283.15 K) was 900.8 ± 1 kg/m3, the viscosity (288.15 K) was 4.921 ± 0.065 mPa·s and the mass density (288.15 K) was 897 ± 1 kg/m3. For the same molecule, the viscosity (293.15 K) was 4.401 ± 0.059 mPa·s, the mass density (293.15 K) was 893.3 ± 1 kg/m3 and the viscosity (298.15 K) was 3.961 ± 0.053 mPa·s. The mass density (298.15 K) was 889.5 ± 1 kg/m3, the viscosity (303.15 K) was 3.583 ± 0.049 mPa·s and the mass density (303.15 K) was 885.8 ± 1 kg/m3. The viscosity (308.15 K) was 3.258 ± 0.044 mPa·s, the mass density (308.15 K) was 882 ± 1 kg/m3 and the viscosity (313.15 K) was 2.975 ± 0.041 mPa·s. The mass density (313.15 K) was 878.3 ± 1 kg/m3, the viscosity (318.15 K) was 2.728 ± 0.038 mPa·s and the mass density (318.15 K) was 874.6 ± 1 kg/m3. The viscosity (323.15 K) was 2.511 ± 0.035 mPa·s, the mass density (323.15 K) was 870.9 ± 1 kg/m3 and the viscosity (328.15 K) was 2.32 ± 0.033 mPa·s. For the same molecule, the mass density (328.15 K) was 867.2 ± 1 kg/m3, the viscosity (333.15 K) was 2.151 ± 0.031 mPa·s and the mass density (333.15 K) was 863.5 ± 1 kg/m3. The viscosity (338.15 K) was 2 ± 0.029 mPa·s, the mass density (338.15 K) was 859.9 ± 1 kg/m3 and the viscosity (343.15 K) was 1.866 ± 0.027 mPa·s. The mass density (343.15 K) was 856.2 ± 1 kg/m3, the viscosity (348.15 K) was 1.745 ± 0.026 mPa·s and the mass density (348.15 K) was 852.5 ± 1 kg/m3. It also gave a viscosity (353.15 K) of 1.636 ± 0.025 mPa·s, a mass density (353.15 K) of 848.9 ± 1 kg/m3 and a viscosity (358.15 K) of 1.538 ± 0.023 mPa·s. It also gave a mass density (358.15 K) of 845.3 ± 1 kg/m3, a viscosity (363.15 K) of 1.449 ± 0.022 mPa·s and a mass density (363.15 K) of 841.6 ± 1 kg/m3. For the same molecule, the viscosity (368.15 K) was 1.368 ± 0.021 mPa·s, the mass density (368.15 K) was 838 ± 1 kg/m3 and the viscosity (373.15 K) was 1.295 ± 0.02 mPa·s. For the same molecule, the mass density (373.15 K) was 834.5 ± 1 kg/m3.
In the case of CC/C=C\C/C=C\C/C=C\CCCCCCCC(=O)OC [methyl (Z,Z,Z)-9,12,15-octadecatrienoate], the viscosity (278.15 K) is reported as 6.361 ± 0.083 mPa·s, the mass density (278.15 K) is reported as 913.2 ± 1 kg/m3 and the viscosity (283.15 K) is reported as 5.618 ± 0.074 mPa·s. For the same molecule, the mass density (283.15 K) was 909.5 ± 1 kg/m3, the viscosity (288.15 K) was 5.003 ± 0.066 mPa·s and the mass density (288.15 K) was 905.7 ± 1 kg/m3. It also gave a viscosity (293.15 K) of 4.484 ± 0.06 mPa·s, a mass density (293.15 K) of 901.9 ± 1 kg/m3 and a viscosity (298.15 K) of 4.043 ± 0.054 mPa·s. It also gave a mass density (298.15 K) of 898.2 ± 1 kg/m3, a viscosity (303.15 K) of 3.667 ± 0.05 mPa·s and a mass density (303.15 K) of 894.5 ± 1 kg/m3. The viscosity (308.15 K) was 3.341 ± 0.046 mPa·s, the mass density (308.15 K) was 890.7 ± 1 kg/m3 and the viscosity (313.15 K) was 2.925 ± 0.04 mPa·s. It also gave a mass density (313.15 K) of 887 ± 1 kg/m3, a viscosity (318.15 K) of 2.675 ± 0.037 mPa·s and a mass density (318.15 K) of 883.3 ± 1 kg/m3. The viscosity (323.15 K) was 2.472 ± 0.035 mPa·s, the mass density (323.15 K) was 879.6 ± 1 kg/m3 and the viscosity (328.15 K) was 2.303 ± 0.033 mPa·s. For the same molecule, the mass density (328.15 K) was 876 ± 1 kg/m3, the viscosity (333.15 K) was 2.123 ± 0.03 mPa·s and the mass density (333.15 K) was 872.3 ± 1 kg/m3. The viscosity (338.15 K) was 1.966 ± 0.029 mPa·s, the mass density (338.15 K) was 868.6 ± 1 kg/m3 and the viscosity (343.15 K) was 1.817 ± 0.027 mPa·s. For the same molecule, the mass density (343.15 K) was 864.9 ± 1 kg/m3, the viscosity (348.15 K) was 1.688 ± 0.025 mPa·s and the mass density (348.15 K) was 861.2 ± 1 kg/m3. It also gave a viscosity (353.15 K) of 1.583 ± 0.024 mPa·s, a mass density (353.15 K) of 857.6 ± 1 kg/m3 and a viscosity (358.15 K) of 1.488 ± 0.023 mPa·s. For the same molecule, the mass density (358.15 K) was 853.9 ± 1 kg/m3, the viscosity (363.15 K) was 1.402 ± 0.022 mPa·s and the mass density (363.15 K) was 850.3 ± 1 kg/m3. For the same molecule, the viscosity (368.15 K) was 1.327 ± 0.021 mPa·s and the viscosity (373.15 K) was 1.253 ± 0.02 mPa·s.
With CCCCCCCC/C=C\CCCCCCCCCCCC(=O)OC [methyl (Z)-13-docosenoate] the viscosity (278.15 K) was 18.09 ± 0.23 mPa·s, the mass density (278.15 K) was 881.6 ± 1 kg/m3 and the viscosity (283.15 K) was 14.94 ± 0.19 mPa·s. For the same molecule, the mass density (283.15 K) was 877.9 ± 1 kg/m3, the viscosity (288.15 K) was 12.56 ± 0.16 mPa·s and the mass density (288.15 K) was 874.3 ± 1 kg/m3. The viscosity (293.15 K) was 10.66 ± 0.14 mPa·s, the mass density (293.15 K) was 870.7 ± 1 kg/m3 and the viscosity (298.15 K) was 9.141 ± 0.12 mPa·s. The mass density (298.15 K) was 867.1 ± 1 kg/m3, the viscosity (303.15 K) was 7.907 ± 0.1 mPa·s and the mass density (303.15 K) was 863.6 ± 1 kg/m3. The viscosity (308.15 K) was 6.917 ± 0.09 mPa·s, the mass density (308.15 K) was 860 ± 1 kg/m3 and the viscosity (313.15 K) was 5.958 ± 0.078 mPa·s. For the same molecule, the mass density (313.15 K) was 856.5 ± 1 kg/m3, the viscosity (318.15 K) was 5.402 ± 0.071 mPa·s and the mass density (318.15 K) was 853 ± 1 kg/m3. For the same molecule, the viscosity (323.15 K) was 4.76 ± 0.063 mPa·s, the mass density (323.15 K) was 849.4 ± 1 kg/m3 and the viscosity (328.15 K) was 4.331 ± 0.058 mPa·s. For the same molecule, the mass density (328.15 K) was 845.9 ± 1 kg/m3, the viscosity (333.15 K) was 3.91 ± 0.053 mPa·s and the mass density (333.15 K) was 842.4 ± 1 kg/m3. For the same molecule, the viscosity (338.15 K) was 3.548 ± 0.048 mPa·s, the mass density (338.15 K) was 839 ± 1 kg/m3 and the viscosity (343.15 K) was 3.234 ± 0.044 mPa·s. For the same molecule, the mass density (343.15 K) was 835.5 ± 1 kg/m3, the viscosity (348.15 K) was 2.961 ± 0.041 mPa·s and the mass density (348.15 K) was 832 ± 1 kg/m3. The viscosity (353.15 K) was 2.707 ± 0.038 mPa·s, the mass density (353.15 K) was 828.6 ± 1 kg/m3 and the viscosity (358.15 K) was 2.51 ± 0.035 mPa·s. For the same molecule, the mass density (358.15 K) was 825.1 ± 1 kg/m3, the viscosity (363.15 K) was 2.322 ± 0.033 mPa·s and the mass density (363.15 K) was 821.7 ± 1 kg/m3.
For CCCCCCCCCCCCCCCCCCCCCC(=O)OC [methyl docosanoate], the viscosity (333.15 K) was 4.749 ± 0.063 mPa·s, the mass density (333.15 K) was 834.5 ± 1 kg/m3 and the viscosity (338.15 K) was 4.274 ± 0.057 mPa·s. The mass density (338.15 K) was 831 ± 1 kg/m3, the viscosity (343.15 K) was 3.866 ± 0.052 mPa·s and the mass density (343.15 K) was 827.5 ± 1 kg/m3. For the same molecule, the viscosity (348.15 K) was 3.513 ± 0.048 mPa·s, the mass density (348.15 K) was 824.1 ± 1 kg/m3 and the viscosity (353.15 K) was 3.207 ± 0.044 mPa·s. It also gave a mass density (353.15 K) of 820.6 ± 1 kg/m3, a viscosity (358.15 K) of 2.939 ± 0.041 mPa·s and a mass density (358.15 K) of 817.2 ± 1 kg/m3. For the same molecule, the viscosity (363.15 K) was 2.709 ± 0.038 mPa·s, the mass density (363.15 K) was 813.7 ± 1 kg/m3 and the viscosity (368.15 K) was 2.502 ± 0.035 mPa·s. It also gave a mass density (368.15 K) of 810.3 ± 1 kg/m3, a viscosity (373.15 K) of 2.317 ± 0.033 mPa·s and a mass density (373.15 K) of 806.9 ± 1 kg/m3.
